In ChEMBL document CHEMBL1139787, “Synthetic tyrosyl gallate derivatives as potent melanin formation inhibitors” (Bioorg Med Chem Lett, 2007):
pIC50: −log10 of the molar value.

Columns and labels:
[1] = molecular target: Tyrosinase (Mus musculus) (UniProt P11344); experiment: Inhibition of tyrosinase in Melan-a cells
[2] = Cytotoxicity againt Melan-a cells by MTT assay; type: cell-based; conditions: Mus musculus
[3] = DPPH radical scavenging activity after 30 mins; type: functional
[4] = Inhibition of melanin formation in Melan-a cells after 5 days; type: functional, cell-based; conditions: 120 h

Tyrosinase (Mus musculus), sequence (P11344 whole entry, looked up): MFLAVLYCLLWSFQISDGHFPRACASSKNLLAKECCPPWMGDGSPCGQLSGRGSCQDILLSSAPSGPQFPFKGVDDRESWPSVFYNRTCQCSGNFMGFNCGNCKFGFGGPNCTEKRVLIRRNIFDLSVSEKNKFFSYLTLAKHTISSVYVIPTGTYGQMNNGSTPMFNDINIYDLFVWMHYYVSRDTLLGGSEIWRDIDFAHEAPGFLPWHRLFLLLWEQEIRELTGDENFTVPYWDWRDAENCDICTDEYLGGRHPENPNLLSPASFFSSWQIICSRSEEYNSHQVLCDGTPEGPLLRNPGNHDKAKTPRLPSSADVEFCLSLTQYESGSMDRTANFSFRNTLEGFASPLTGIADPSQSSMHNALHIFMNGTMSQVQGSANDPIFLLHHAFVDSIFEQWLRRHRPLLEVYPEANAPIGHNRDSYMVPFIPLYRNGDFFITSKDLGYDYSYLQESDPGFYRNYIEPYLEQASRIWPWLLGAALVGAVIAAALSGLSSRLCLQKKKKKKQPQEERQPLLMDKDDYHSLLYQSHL

O=C(OCCc1ccc(O)cc1)c1cc(O)c(O)c(O)c1
pIC50 [1]: 5.31 | pIC50 [2]: < 5.00 | pIC50 [3]: 5.12

O=C(OCCc1cccc(O)c1)c1cc(O)c(O)c(O)c1
pIC50 [1]: 4.82 | pIC50 [2]: < 4.30 | pIC50 [3]: 5.11 | pIC50 [4]: 5.05

O=C(OCCc1ccccc1O)c1cc(O)c(O)c(O)c1
pIC50 [1]: 4.84 | pIC50 [2]: < 4.30 | pIC50 [3]: 5.08 | pIC50 [4]: 4.86

Cc1c(C)c2c(c(C)c1O)CC[C@@](C)(CCCC(C)CCCC(C)CCCC(C)C)O2 (single isomer, unassigned) [ALPHA-TOCOPHEROL]
pIC50 [3]: 5.00

OC[C@H]1O[C@@H](Oc2ccc(O)cc2)[C@H](O)[C@@H](O)[C@@H]1O [ARBUTIN]
pIC50 [2]: < 2.82 | pIC50 [4]: 3.93

O=C1O[C@H]([C@@H](O)CO)C(O)=C1O [ASCORBIC ACID]
pIC50 [3]: 4.87
